One assay relates to Hb-AGE. The settings on record: diabetic patients treated for 28 days; cited from earlier work.
Another assay has as its system mAb 4G9. Description: competition ELISA: browned compounds compete with plate-bound BSA-AGE for mAb 4G9. It counts as binding, murine. The settings on record: concentration based on the original proteins or peptides. The procedure:
Production of AGE proteins. All proteins and peptides were browned with glucose, ribose or glucose 6-phosphate in 300 mM sodium phosphate buffer, pH 7.4, for 8-12 weeks at 37° C. The control proteins were treated the same way except the sugars were omitted.
The competition ELISA was performed by pre-coating microtiter plates with BSA-AGE and blocking with Assay Buffer. The plates was washed and mAb 4G9 and increasing concentrations of the competitors listed in Table 1 were added and simultaneously incubated for 1 hr at 37° C. The unbound materials were removed by extensive washing and the bound mAb was detected with alkaline phosphatase labeled anti-mouse antibodies similar to direct ELISA. All washes were in TBS-T wash solution: all incubations proceeded for 1 hr at 37° C.
(ELISA stands for enzyme-linked immunosorbent assay.)

[1] abbreviates: protein or peptide browned with ribose.

pIC50: −log10 of the molar value.

Consider three compounds from patent USRE39138E1, “Monoclonal antibody specific for advanced glycosylation endproducts in biological samples” (Alteon Incorporated, priority 1994, dated 2006).

Take `N=C(N)NN` [aminoguanidine]: in the assay on Hb-AGE, the “levels of Hb-AGE at the end of the treatment period” value is on record as “significantly decreased”.
What is called pIC50 is the IC50 on a negative log10 scale, so that one unit is a factor of ten. Regarding Arg-lys, the negative-log IC50 (pIC50) in the assay on mAb 4G9 (protein or peptide browned with glucose) is 3.60; in the assay with mAb 4G9 (setting [1]), 4.30.
On to Hemoglobin, for which the pIC50 in the assay on mAb 4G9 (setting [1]) was 3.70.
